Converted amounts (≈) assume the structure as drawn.
Columns and labels:
ATCC 10240 = test: Antibacterial in vitro activity in comparison with azithromycin (Table 3); format: cell-based; details: Brain hearth Bouillon, 24-48 hours, 37° C., inoculum 10^-5 -10^-6 cfu/mL
Source text: (§1) In Table 3 there are represented in vitro tests of 6-O-methyl- (Ii), 6,11-di-O-methyl- (Ij), 11-O-methyl- (Ik) and 6,11,4"-tri-O-methyl-azithromycin A (II) in comparison with azithromycin.

[1] = system: Escherichia coli ATCC 10536; test: as above; format: cell-based; details: ATCC10536, Brain hearth Bouillon, 24-48 hours, 37° C., inoculum 10^-5 -10^-6 cfu/mL
Source text: as §1

[2] = system: Bacillus pumilus NCTC 8241; test: as above; format: cell-based; details: NCTC8241, Brain hearth Bouillon, 24-48 hours, 37° C., inoculum 10^-5 -10^-6 cfu/mL
Source text: as §1

ATCC 8043 = test: as above; format: cell-based; details: Staphylococcus faecalis, ATCC8043; Brain hearth Bouillon, 24-48 hours, 37° C., inoculum 10^-5 -10^-6 cfu/mL
Source text: as §1

[3] = system: Bacillus subtilis NCTC 8241; test: as above; format: cell-based; details: Bacillus subtilis, NCTC8241; Brain hearth Bouillon, 24-48 hours, 37° C., inoculum 10^-5 -10^-6 cfu/mL
Source text: as §1

[4] = system: Staphylococcus epidermidis ATCC 12228; test: as above; format: cell-based; details: ATCC12228, Brain hearth Bouillon, 24-48 hours, 37° C., inoculum 10^-5 -10^-6 cfu/mL
Source text: as §1

[5] = system: Bacillus cereus NCTC 10320; test: as above; format: cell-based; details: NCTC10320, Brain hearth Bouillon, 24-48 hours, 37° C., inoculum 10^-5 -10^-6 cfu/mL
Source text: as §1

Sarcina lutea ATCC 9341 = test: as above; format: cell-based; details: Micrococcus luteus, ATCC9341; Brain hearth Bouillon, 24-48 hours, 37° C., inoculum 10^-5 -10^-6 cfu/mL
Source text: as §1

[6] = system: Corynebacterium xerosis NCTC 9755; test: as above; format: cell-based; details: NCTC9755, Brain hearth Bouillon, 24-48 hours, 37° C., inoculum 10^-5 -10^-6 cfu/mL
Source text: as §1

[7] = system: Pseudomonas aeruginosa NCTC 10490; test: as above; format: cell-based; details: NCTC10490, Brain hearth Bouillon, 24-48 hours, 37° C., inoculum 10^-5 -10^-6 cfu/mL
Source text: as §1

[8] = system: standard bacterial strains; test: In vitro activity on the series of standard bacterial strains (Table 3, summary); format: cell-based; details: versus azithromycin
Method: In Table 3 there are represented in vitro tests of 6-O-methyl- (Ii), 6,11-di-O-methyl- (Ij), 11-O-methyl- (Ik) and 6,11,4"-tri-O-methyl-azithromycin A (II) in comparison with azithromycin. […] Namely, the majority of the investigated bacterial strains was 2 to 4 times more sensitive in comparison with the parent antibiotic.
Substrate: Brain hearth Bouillon
Incubation: 24-48 hours, 37° C.
Inocculum; 10^-5 -10^-6 cfu/mL

ATCC 6538P = test: Antibacterial in vitro activity in comparison with azithromycin (Table 3); format: cell-based, Staphilococcus aureus; details: Brain hearth Bouillon, 24-48 hours, 37° C., inoculum 10^-5 -10^-6 cfu/mL; read-out: MIC
Source text: as §1

`CC[C@H]1OC(=O)[C@H](C)[C@@H](O[C@H]2C[C@@](C)(OC)[C@@H](O)[C@H](C)O2)[C@H](C)[C@@H](O[C@@H]2O[C@H](C)C[C@H](N(C)C)[C@H]2O)[C@](C)(O)C[C@@H](C)CN(C)[C@H](C)[C@@H](OC)[C@]1(C)O` [Ik, 11-O-Methyl-azithromycin A] showed an MIC (ATCC 10240) of 0.1 µg/mL (≈ 0.131 µM), an MIC [1] of 0.78 µg/mL (≈ 1.02 µM) and an MIC [2] of 0.05 µg/mL (≈ 0.0655 µM). For the same compound, the MIC (ATCC 8043) was 0.05 µg/mL (≈ 0.0655 µM), the MIC [3] was 0.1 µg/mL (≈ 0.131 µM) and the MIC [4] was 0.1 µg/mL (≈ 0.131 µM). It also gave an MIC [5] of 0.1 µg/mL (≈ 0.131 µM), an MIC (Sarcina lutea ATCC 9341) of 0.0125 µg/mL (≈ 0.0164 µM) and an MIC [6] of 1.56 µg/mL (≈ 2.04 µM). The MIC [7] was 25 µg/mL (≈ 32.8 µM), the “activity in comparison with azithromycin, in words” value [8] was “significantly higher activity” and the MIC (ATCC 6538P) was 0.2 µg/mL (≈ 0.262 µM).

From US5250518A, “O-methyl derivatives of azithromycin A” (priority 1990, dated 1993)
